Row | melting point [°C] | Structure (SMILES)
1 | 186 | CC(CO)C1=C(O)C(=O)C2=C(CC(O)C3C(C)(C)CCCC23C)C1=O (stereo not given)
2 | 115 | C=C1C(=CC=C2CCCC3(C)C2CCC3C(C)CCCC(C)(C)O)CC(O)CC1O (stereo not given)
3 | 180 | O=C(O)c1nnn(Cc2ccccc2)c1C(=O)O
4 | -10 to -8 | FC(F)(F)c1cc(Cl)c(Cl)c(Cl)c1
5 | 110 to 112 | Clc1ncnc2scc(-c3cccs3)c12
6 | 159 | COc1cc(C(=O)O)ccc1C
7 | 57 to 60 | CCOC(=O)C1=C(N)CCC1
8 | 234 | CC1(C)C2CCC1(C)C(N=C1C(=O)Nc3ccccc31)C2N=C1C(=O)Nc2ccccc21 (stereo not given)
9 | 143 | O=S1(=O)CC(Br)C(Br)C1 (stereo not given)
10 | 220 | CCOC(=O)C1=C(C)NC(=O)NC1c1ccccc1[N+](=O)[O-] (stereo not given)
11 | 122 | O=C1NC2CC=CCC12 (stereo not given)
12 | 254 | CC(=O)C(C(C)=O)=C1SC2=C(C(=O)c3ccccc3C2=O)N1c1ccccc1
13 | 208 to 211 | CCOC(=O)c1ccccc1C(=C1C=C(Br)C(=O)C(Br)=C1)c1cc(Br)c(O)c(Br)c1
14 | 90 | O=C(CO)CO
15 | 46 to 48 | Nc1c([N+](=O)[O-])cc(F)c(F)c1F
16 | 194 | CCN(CC)c1ccc(C(=O)O)cc1
17 | 191 to 196 | Oc1ccc(Br)cc1C=NCCN=Cc1cc(Br)ccc1O
18 | 234 | CCOC(=O)C1C(c2ccccc2)C(C(=O)OCC)C(O)(C(F)(F)F)NC1(O)C(F)(F)F (stereo not given)
19 | 86 to 90 | O=C(Nc1ccccc1)C(F)(F)F
20 | 60 to 62 | O=S(=O)(Cl)Cc1ccccc1Cl
21 | 113 to 115 | NC(COc1ccc(C2SCCS2)cc1)=NO
22 | 60 to 61 | COC(=O)c1cc(C(C)=O)ccc1O

Row | melting point [°C] | Structure (SMILES)
23 | 24 | Brc1ccc2ncccc2c1
24 | -1 | CCOCCOC(=O)CCCCCCCCC(=O)OCCOCC
25 | 88 to 90 | OCc1cccc(-c2ccsc2)c1
26 | 84 | CC(=O)c1csc(-c2ccccc2)n1
27 | 80.3 | COc1cc(O)cc(O)c1
28 | 33.5 | O=CCc1ccccc1
29 | 300 | O=c1[nH]cc(Cl)c(=O)[nH]1
30 | 196 | CN(CC=CC#CC(C)(C)C)Cc1cccc2ccccc12
31 | 123 | C1CC2CC1C1OC21 (stereo not given)
32 | 284 to 288 | CC1=NN(c2ccc(C(=O)O)cc2)C(=O)C1
33 | 188 | COc1ccc(C=CC(=O)c2ccc(O)cc2)cc1
34 | 67 to 69 | Cc1nc(-c2ccc(CO)s2)cs1
35 | 72 to 73 | Cc1nn(-c2ccccc2)nc1CBr
36 | 80 | CC1(C)OC(=O)C2CCCCC21 (stereo not given)
37 | 149 | O=c1oc2c3c4c(cc2c2c1CCC2)CCCN4CCC3
38 | 224 to 225 | Nc1ccc(-c2ccc3nn(-c4ccccc4)nc3c2)cc1
39 | 158 | COc1ccc(C(N)=O)cc1N
40 | 176 | NC(=O)C(Cc1ccc([N+](=O)[O-])cc1)c1ccccc1 (stereo not given)
41 | 128 to 130 | NC(=S)C1CCN(C(=O)OCc2ccccc2)CC1
42 | 156 | O=[N+]([O-])c1ccc(NN=C(c2ccccc2)c2ccccc2)cc1
43 | 64 | CC(C)(C)[Si](C)(C)ON
44 | 207 | Cc1ccc(N=C(Nc2ccc(C)cc2)c2cc(C(C)(C)C)c(O)c(C(C)(C)C)c2)cc1

Row | melting point [°C] | Structure (SMILES)
45 | 236 to 238 | FC(F)(F)c1ccccc1-n1cc[nH]c1=S
46 | 83 to 85 | O=C(CBr)c1ccc(Cl)c([N+](=O)[O-])c1
47 | 138 to 142 | Cc1cc(O)c(C(=O)c2ccccc2)cc1Cl
48 | 91 | CC1=C(C)CC(Cl)(Cl)C(=O)C(Cl)(Cl)C1
49 | 241 to 247 | O=C1OC(=O)C2=C1Cc1ccccc1C2
50 | 126 | O=[N+]([O-])c1ccccc1-c1ccccc1[N+](=O)[O-]
51 | -25 | CCCCCCCCN1CCCC1=O
52 | 310 to 312 | FC(F)(F)c1cc(Cl)c2nc(S)[nH]c2c1
53 | 16 | CCC(C)c1ccccc1O (stereo not given)
54 | 139 | CCOC(=O)/C(=N\Nc1ccc(C)cc1C)C(=O)C(F)(F)F
55 | 261 to 267 | NC(Cc1c[nH]c2ccc(Br)cc12)C(=O)O (racemic)
56 | 225 | O=[N+]([O-])c1ccc(C2Nn3c(nnc3-c3ccccc3)S2)cc1 (stereo not given)
57 | 194 | Cc1ccnc2c1ccc1c(C)ccnc12
58 | 130 to 131 | CCOC(=O)c1c(C)sc(Sc2ccccc2[N+](=O)[O-])c1OC(C)=O
59 | 177 | CC(=O)c1ccc(NC(=O)c2ccccc2)c(C(=O)c2ccccc2)c1
60 | 82 to 85 | O=C(CBr)c1ccc2ccccc2c1
61 | 154 to 156 | NC(=S)NN=Cc1ccccc1
62 | 195 | O=C(O)c1cc2cc(Br)ccc2oc1=O
63 | 63 | O=C(O)CCCOc1ccccc1
64 | 263 | S=C1NC(=S)C(c2ccccc2)(c2ccccc2)N1
65 | 72 to 76 | c1ccc2c(c1)CCc1ccccc1C2
66 | 124 to 126 | COC(=O)c1cc(C)n(CN(Cn2nc(C(=O)OC)cc2C)c2ccccc2)n1

Row | melting point [°C] | Structure (SMILES)
67 | -19 | C1CCCCNCCC1
68 | 56 to 58 | O=Cc1csc2ccccc12
69 | 160 | CC(=O)N1C(C(=O)O)Cc2c([nH]c3ccccc23)C1(C)C (stereo not given)
70 | 163 | Cc1cc(C)n(-c2ccc(C(=O)O)cc2)n1
71 | 150 | O=C(O)C(=O)Nc1ccccc1
72 | 185 | CCOC(=O)C1=C(C)NC(=O)NC1c1ccc(Cl)cc1 (stereo not given)
73 | 115 to 117 | COc1ccc(C(O)C(C)(C)C(=O)O)cc1 (stereo not given)
74 | 133 | O=Cc1ccccc1OCC(=O)O
75 | 155 | COc1cccc(OC)c1P(c1c(OC)cccc1OC)c1c(OC)cccc1OC
76 | 190 | NC(=O)/C(=N\Nc1cccc(C(F)(F)F)c1)c1nc2ccccc2s1
77 | 93 | Cc1nn2c(C)nnc2s1
78 | 88 to 92 | O=Cc1ccc(OCc2ccccc2)c(OCc2ccccc2)c1
79 | 79 | CC(=O)CCc1oc2ccc(Br)cc2c1-c1ccc(C)o1
80 | 175 | O=[N+]([O-])c1ccc2ncsc2c1
81 | 120 to 122 | NC(=S)c1ccccc1N
82 | 65 to 67 | CCOC(=O)c1ccc(F)cc1F
83 | 57 to 60 | Cc1noc(C)c1[N+](=O)[O-]
84 | 59 to 61 | COC(=O)c1ccc(OC)c(OC2CCCC2)c1
85 | 206 | NS(=O)(=O)c1cc2c(cc1Cl)NC(CSCC(F)(F)F)NS2(=O)=O (stereo not given)
86 | -116 | CCCCC(C)C(C)C (stereo not given)
87 | 79 to 83 | CCCCCCCCCCCCCCCCCC(=O)OC1CCC2(C)C(=CCC3C2CCC2(C)C(C(C)CCCC(C)C)CCC32)C1 (stereo not given)
88 | 159 | C/C(=C\C=C\c1ccccc1)C(=O)O

Row | melting point [°C] | Structure (SMILES)
89 | 135 to 137 | Nc1cc(C(F)(F)F)ccc1N1CCOCC1
90 | 176 | CCN(CC)CC(=O)OCC(=O)C1(O)CCC2C3CCC4=CC(=O)C=CC4(C)C3C(O)CC21C (stereo not given)
91 | 211 to 213 | COC(=O)C1=C(N)Oc2cc(C)n(CCc3ccccc3)c(=O)c2C1c1ccc(OC)cc1 (stereo not given)
92 | -60 | C=C(C)C(=O)OC1CC2CCC1(C)C2(C)C (stereo not given)
93 | 182 | COc1ccccc1C(=O)N(NC(=O)c1ccccc1)C(C)(C)C
94 | 280 | CC(=O)OC1=c2ccc([N+](=O)[O-])cc2=NC1=c1ccc(=C2N=c3cc([N+](=O)[O-])ccc3=C2OC(C)=O)cc1
95 | 97 | Clc1ccc(I)cn1
96 | 41 | COc1cc(CCO)ccc1O
97 | -4 | ClC=C(Cl)C(Cl)=CCl
98 | 68 to 70 | Cc1ccc(S(=O)(=O)OCC(C)OS(=O)(=O)c2ccc(C)cc2)cc1 (stereo not given)
99 | 86.5 to 87.5 | COC(=O)CCC(C)C1CCC2C3C=CC4CC(OC(C)=O)CCC4(C)C3CC(OC(C)=O)C12C (stereo not given)
100 | 86 | COC(=O)c1ccc(Cl)nc1
101 | 90 to 94 | COc1ccc([N+](=O)[O-])c(O)c1
102 | 141 to 142 | CCO[C@H]1OC(C(N)=O)=CC[C@H]1Br
103 | 190 | N=C1NC(=N)c2ccccc21
104 | 241 to 243 | CC(CN(CC(=O)O)CC(=O)O)N(CC(=O)O)CC(=O)O (stereo not given)
105 | 100 | CC(C)c1cc(Cl)nc(N)n1
106 | 194 to 196 | CSc1nc(N=Cc2ccc([N+](=O)[O-])cc2)nn1C
107 | 138 to 141 | Cc1nccn1-c1ccc(C#N)cc1
108 | 154 | COc1ccc(-c2ccc(S(=O)(=O)N3CCCC3C(=O)O)cc2)cc1 (stereo not given)
109 | 215 | CC12CCC(=O)C=C1CCC1C2CCC2(C)C1CCC2(O)C(=O)CO (stereo not given)

Row | Structure (SMILES) | melting point [°C]
110 | CCC1C(C)=NN=C(c2ccc(OC)c(OC)c2)c2cc(OC)c(OC)cc21 (stereo not given) | 156
111 | O=C1C(Cl)=C(Cl)C(=O)C(Cl)=C1Cl | 290
112 | O=c1c2ccccc2[nH]c(=S)n1-c1ccccc1 | 309 to 311
113 | COP(=O)(OC)OC(=CCl)c1ccc(Cl)cc1Cl | 69.5
114 | CCN(CCO)CCO | -50
115 | CC(Oc1ccc(Oc2nc3ccc(Cl)cc3o2)cc1)C(=O)O (stereo not given) | 158
116 | CCCCc1c(C)nc(NCC)nc1OS(=O)(=O)N(C)C | 50.5
117 | Clc1ccc(O[Si]23OCCN(CCO2)CCO3)cc1 | 166
118 | O=C(O)C1(Cl)CC2C=CC1C2 (stereo not given) | 139 to 141
119 | O=S(=O)(F)Cc1ccccc1 | 93
120 | CC(C)(C)c1cc([N+](=O)[O-])cc([N+](=O)[O-])c1O | 126
121 | Cc1nn(C(C)(C)C)c(C)c1C=O | 56 to 61
122 | COc1ccccc1C1CCNCC1 | 54 to 55
123 | COC(=O)[C@@H]1C[C@@H]2CSCN2[C@@]12C(=O)c1cccc3cccc2c13 | 172
124 | N[C@H](c1ccccc1)[C@H](N)c1ccccc1 | 81 to 84
125 | COC1C=CC2=CCN3CCC4=C(CC(=O)OC4)C23C1 (stereo not given) | 99.5
